Results as given in patent US20250002954A1, “Novel Compound, Use Thereof, and Method for Producing Same, and Compound-Containing Composition, Method for Producing 4-Trehalosamine, and Microorganism” (Microbial Chemistry Research Foundation, priority 2021, published 2025).

What was measured:
[1] = pH buffer effect (pH change on addition of HCl or NaOH); type: physicochemical
Experimental: Using the purified product of 4-trehalosamine obtained in the <Purification process> of production example 10, the functionality of 4-trehalosamine as buffer reagent was determined in the following manner.
A change in pH while 50 μL to 100 μL of 1 M hydrochloric acid (HCl) or 1 M sodium hydroxide (NaOH) was added to 50 mL of aqueous solution of 10 mM 4-trehalosamine (production example 10), 50 mL of aqueous solution of 10 mM trehalose, 50 mL of 10 mM tris, 50 mL of aqueous solution of 10 mM MES (2-(N-morpholino) ethanesulfonic acid), or 50 mL of aqueous solution of 10 mM HEPES (4-(2-hydroxyethyl)-1-piperazinylethane sulfonic acid) was measured with a pH meter (LAQUA F-51, manufactured by HORIBA, Ltd.).

[2] = Starch aging inhibiting effect, enzyme assay 3 (potato starch gel); details: final concentration 10% or 15% (w/w), 48 and 96 hours
Experimental: Starch aging inhibiting effect was determined in a similar manner to the <Enzyme assay 1> except that the “—Preparation of measurement samples—” and “—Determination of starch aging inhibiting effect—” in the <Enzyme assay 1> were changed to the methods below.
The 4-trehalosamine (4TA) obtained in production example 10, and trehalose (TRH), sucrose (SCR), and glycerol (GOL) were each dissolved in water to a final concentration of 10% (w/w) or 15% (w/w), thus preparing aqueous solutions. Into each of the aqueous solutions containing the different sugars or water as control, potato starch (manufactured by Yoshida Pharmaceutical Company Limited) was mixed to a final concentration of 15% (w/w) and suspended uniformly, and the suspension was aliquoted in 33.3 μL volumes to three tubes. […]
Starch aging inhibiting effect was determined in a similar manner to the “—Determination of starch aging inhibiting effect—” of the <Enzyme assay 1> except that measurement of absorbance at 660 nm was changed to measurement of absorbance at 620 nm in the “—Determination of starch aging inhibiting effect—” of the <Enzyme assay 1>, and that quantification (absorbance measurement) of enzyme reaction and sugar was performed for the 0-hour, 48-hour, and 96-hour samples in the quantification (absorbance measurement) of enzyme reaction and sugar. […]

[3] = Dynamics upon oral administration to mice (blood level, urinary and fecal excretion); type: in vivo, ICR mice; details: single oral dose 0.5 mg per g of body weight
Experimental: 4-trehalosamine or trehalose dissolved in saline at 0.5 mg/10 μL per g of body weight was orally administered in a single dose to ICR mice (9-week to 10-week old, female, n=5) that had been fasted overnight. The five mice on which the same treatment had been performed were placed in the same cage.
Urine and feces were regularly collected together. The collected feces were suspended in water at 200 mg/mL and centrifuged at 21,300×g for 5 minutes. The centrifuged supernatant of feces suspension and the collected urine were each diluted with methanol to 1/1,000, on which LC-MS analysis was performed under similar conditions to test example 1 and cumulative excretion of 4-trehalosamine (4TA) or trehalose (TRH) over time was calculated.
Blood was regularly collected from tail vein in an amount of around 10 μL to 20 μL, and 200 μL of methanol was added to it after measurement. After agitation on a vortex, it was centrifuged at 21,000×g for 5 minutes. The supernatant was diluted with methanol to ⅕ and LC-MS analysis was performed on it under similar conditions to test example 1. The results for 4-trehalosamine are shown in FIG. 19G and the results for trehalose are shown in FIG. 19H for each individual (n=5).

SMILES: N[C@H]1[C@H](O)[C@@H](O)[C@@H](O[C@H]2O[C@H](CO)[C@@H](O)[C@H](O)[C@H]2O)O[C@@H]1CO [4-trehalosamine]
- pH buffer effect ([1]; 10 mM aqueous solution, 1 M HCl or 1 M NaOH added): strong pH buffer effect comparable that of tris
- pKa ([1]; aqueous solution, estimated from titration): 6.99
- rate of degradation by β-amylase (starch aging inhibiting effect) [2]: significantly high rate of degradation by β-amylase at and after 48 hours compared to the other gels
- absorption and blood circulation after oral administration ([3]; fasted): a portion of orally administered 4-trehalosamine is absorbed and circulates in blood for a certain amount of time
- excretion ([3]; urine and feces): excreted through feces and urine in the original form, without being degraded or modified
